Assay results reported in patent US20040214721A1 (priority 2001, published 2004).

SMILES | melting point [°C]
CCC#CCOc1ccc([C@@H]2CCCC[C@H]2NC(=O)[C@@H](NS(=O)(=O)N(C)C)C(C)C)cc1OC | 158 to 160
COc1ccc(-c2ccccc2NC(=O)[C@@H](NS(C)(=O)=O)C(C)C)cc1OC | 68 to 70
CCC#CCOc1ccc([C@@H]2CCCC[C@H]2NC(=O)[C@@H](NS(C)(=O)=O)C(C)C)cc1OC | 166 to 168
C#CCOc1ccc([C@@H]2CCCC[C@H]2NC(=O)[C@@H](NS(C)(=O)=O)C(C)C)cc1OC | 183 to 185
CCOc1ccc(-c2ccccc2NC(=O)[C@@H](NS(C)(=O)=O)C(C)C)cc1OC | 95 to 98
CCC#CCOc1ccc([C@@H]2CCCC[C@H]2NC(=O)[C@@H](NS(=O)(=O)CC)C(C)C)cc1OC | 133 to 136
C#CCOc1ccc([C@@H]2CCCC[C@H]2NC(=O)[C@@H](NS(=O)(=O)CC)C(C)C)cc1OC | 149 to 151
COc1ccc(-c2ccccc2NC(=O)CNS(C)(=O)=O)cc1OC | 158 to 160
